What was measured:
[1] = system: bone metastatic prostate tumors; test: Radium-223 with anti-PD-L1 immunotherapy in bone metastatic prostate cancer mice models; format: in vivo
Method: PD-L1 expression after Ra-223 treatment, and blocking PD-L1 combined with Ra-223 as a treatment for bone metastatic prostate cancer is examined in bone metastatic prostate cancer mice models.
The safety and efficacy of Ra-223 combined with anti-PD-L1 antibody versus Ra-223 or […] alone and radiation therapy as controls are tested. A genetically engineered mouse model (Pten/Smad4-null FVB mice, Ding et al., Nature 2011) is used. Treatments are initiated in mice with established tumors. The goal here is to evaluate treatment efficacy. At the experimental endpoint, tumor volume, metastatic burden (lung and liver) and mouse survival is measured.

[2] = single dose 250 kBq per kg body weight; cited from earlier work
[3] = system: diffuse large B-cell lymphoma (DLBCL); settings: cited from earlier work

Molecule	PD-L1 expression after treatment [1]	cases of grade 3 neutropenia [2]	observed adverse reactions [2]	subjects progression-free at the end of the follow-up period ([3]; DLBCL subjects after autologous stem cell transplantation, preliminary results, control group 47%) [%]	subjects alive ([3]; DLBCL subjects after autologous stem cell transplantation, preliminary results, control group 62%) [%]	effect on natural killer cells ([3]; phase II trial)
[Cl][223Ra][Cl] [radium-223, radium-223 dichloride]	upregulates PD-L1 expression	1/5	diarrhea and reversible myelosuppression			
CT-011: humanized IgG 1 monoclonal antibody against PD-1				70	82	augments the activity of natural killer cells
